“Also recorded” adds a separate entry of the source.
System: pseudovirus carrying the Spike protein of SARS-CoV-2
Assay type: cell-based

SMILES	inhibition of pseudovirus infection (attachment and entry)
CC(C)C[C@H](N[C@@H](Cc1cncn1Cc1cc(Cl)cc(Cl)c1)C(=O)O)C(=O)O [MLN-4760]	No inhibition of viral infection; also recorded: no ability to block the entrance to the pseudovirus
CN1CCN(c2ccc(CNC(=O)c3ccno3)cc2)CC1 [SSAA09E2]	dose-dependent inhibition of pseudovirus infection; also recorded: effective at blocking infection
